The values below come from PubChem BioAssay AID1259407 (Chemical Carcinogenesis Research Information System (CCRIS), 2018).

Activity calls are given as the source filed them. How the calls were made is not given here.

In this series the test system is CCRIS mutagenicity, Ames/micronucleus/aberration tests. Put plainly: CCRIS mutagenicity studies.
Where [1] appears, read: Test System: AMES SALMONELLA TYPHIMURIUM, Strain/Indicator: TA98, Metabolic Activation: NONE, Method: STANDARD PLATE.
Setting [2] is: Test System: AMES SALMONELLA TYPHIMURIUM, Strain/Indicator: TA98, Metabolic Activation: RAT, LIVER, S-9, AROCLOR 1254, Method: STANDARD PLATE.
The mark [3] stands for this setting: Test System: AMES SALMONELLA TYPHIMURIUM, Strain/Indicator: TA100, Metabolic Activation: NONE, Method: STANDARD PLATE.
Where [4] appears, read: Test System: AMES SALMONELLA TYPHIMURIUM, Strain/Indicator: TA100, Metabolic Activation: RAT, LIVER, S-9, AROCLOR 1254, Method: STANDARD PLATE.

For the compound `O=[N+]([O-])c1cc2c3c(cccc3c1)-c1ccccc1-2`, the mutagenic call runs as follows: (Test System: AMES SALMONELLA TYPHIMURIUM, Strain/Indicator: TA98(1,8-DNP6), Metabolic Activation: NONE, Method: STANDARD PLATE) “inactive; negative”; (Test System: AMES SALMONELLA TYPHIMURIUM, Strain/Indicator: TA98(NR), Metabolic Activation: NONE, Method: STANDARD PLATE) “inactive; negative”; under setting [1], “active; positive”; (Test System: AMES SALMONELLA TYPHIMURIUM, Strain/Indicator: TA7001, Metabolic Activation: NONE, Method: PREINCUBATION) “inactive; negative”; (Test System: AMES SALMONELLA TYPHIMURIUM, Strain/Indicator: TA7002, Metabolic Activation: NONE, Method: PREINCUBATION) “active; positive”; (Test System: AMES SALMONELLA TYPHIMURIUM, Strain/Indicator: TA7003, Metabolic Activation: NONE, Method: PREINCUBATION) “inactive; negative”. For the same compound, the mutagenic call runs as follows: (Test System: AMES SALMONELLA TYPHIMURIUM, Strain/Indicator: TA7004, Metabolic Activation: NONE, Method: PREINCUBATION) “active; positive”; (Test System: AMES SALMONELLA TYPHIMURIUM, Strain/Indicator: TA7005, Metabolic Activation: NONE, Method: PREINCUBATION) “active; positive”; (Test System: AMES SALMONELLA TYPHIMURIUM, Strain/Indicator: TA7006, Metabolic Activation: NONE, Method: PREINCUBATION) “active; positive”.

As to `COc1cc(C)cc2c(O)c(-c3c(C)cc4c(O)ccc(O)c4c3OC)cc(O)c12`, the mutagenic call by setting is: (Test System: AMES SALMONELLA TYPHIMURIUM, Strain/Indicator: TA98, Metabolic Activation: NONE, Method: PREINCUBATION) “inactive; negative”; (Test System: AMES SALMONELLA TYPHIMURIUM, Strain/Indicator: TA98, Metabolic Activation: RAT, LIVER, S-9, AROCLOR 1254, Method: PREINCUBATION) “inactive; negative”; (Test System: AMES SALMONELLA TYPHIMURIUM, Strain/Indicator: TA100, Metabolic Activation: NONE, Method: PREINCUBATION) “inactive; negative”; (Test System: AMES SALMONELLA TYPHIMURIUM, Strain/Indicator: TA100, Metabolic Activation: RAT, LIVER, S-9, AROCLOR 1254, Method: PREINCUBATION) “inactive; negative”.

Consider `Nc1cc(Cl)c(N)c(Cl)c1`, for which the mutagenic call (End Point: IN VITRO CHROMOSOMAL ABERRATIONS, Test System: CHO CELLS, Metabolic Activation: NONE) is “active; positive; weak response”.

With `OCc1c[nH]c2ccccc12`, the mutagenic call was “inactive; negative” (Test System: Ames Salmonella typhimurium, Strain/Indicator: TA98, Metabolic Activation: None, Method: Plate incorporation); “inactive; negative” (Test System: Ames Salmonella typhimurium, Strain/Indicator: TA98, Metabolic Activation: None, Method: Preincubation); “inactive; negative” (Test System: Ames Salmonella typhimurium, Strain/Indicator: TA98, Metabolic Activation: Rat, Liver, S-9, Aroclor 1254, Method: Plate incorporation); “inactive; negative” (Test System: Ames Salmonella typhimurium, Strain/Indicator: TA98, Metabolic Activation: Rat, Liver, S-9, Aroclor 1254, Method: Preincubation); “active; positive. reevaluation of results: positive” (Test System: MOUSE LYMPHOMA, Strain/Indicator: L5178Y (TK+/TK-), Metabolic Activation: NONE, Method: SUSPENSION/PLATE); “active; positive. reevaluation of results: positive” (Test System: MOUSE LYMPHOMA, Strain/Indicator: L5178Y (TK+/TK-), Metabolic Activation: RAT, LIVER, S-9, AROCLOR 1254, Method: SUSPENSION/PLATE).

With `NC(=O)C1(N2CCCCC2)CCN(CCCC(=O)c2ccc(F)cc2)CC1`, the mutagenic call (End Point: IN VITRO CHROMOSOMAL ABERRATIONS, Test System: HUMAN LYMPHOCYTES, Metabolic Activation: NONE) was “inactive; negative”.

Take `NC(=O)CCC(=O)Nc1ccc(Cl)cc1`: the mutagenic call runs as follows: under setting [1], “inactive; negative”; under setting [2], “inactive; negative”; under setting [3], “inactive; negative”; under setting [4], “inactive; negative”.

`Cc1cc(=O)c2c(O)c3c(O)cc(O)c4c5c(O)cc(O)c6c(O)c7c(=O)cc(C)c8c1c2c(c34)c(c65)c78`: the mutagenic call was “inactive; negative” under setting [1], “inactive; negative” under setting [2], “inactive; negative” under setting [3] and “inactive; negative” under setting [4].
